From patent publication US20240342139A1, “DEVELOPMENT AND OPTIMIZATION OF THIOCHROMENOTHIAZOLE-BASED MSUT2 INHIBITORS AS CANDIDATES FOR THE TREATMENT OF TAUOPATHY” (The United States Government As Represented By the …, priority 2023, published 2024)

How the values were obtained:
MSUT2 [1] = molecular target: T1, MSUT2 (Homo sapiens (Human), UniProt Q6PJT7); experiment: primary tau-inclusion neuronal assay (MSUT2 inhibitor activity); type: cell-based; conditions: for IC50: dose-dependent activity, primary tau-inclusion neuronal assay; for biological activity in the in vitro assay (SAR summary in words): preliminary SAR summary
T1 sequence (Q6PJT7 whole entry, species assumed): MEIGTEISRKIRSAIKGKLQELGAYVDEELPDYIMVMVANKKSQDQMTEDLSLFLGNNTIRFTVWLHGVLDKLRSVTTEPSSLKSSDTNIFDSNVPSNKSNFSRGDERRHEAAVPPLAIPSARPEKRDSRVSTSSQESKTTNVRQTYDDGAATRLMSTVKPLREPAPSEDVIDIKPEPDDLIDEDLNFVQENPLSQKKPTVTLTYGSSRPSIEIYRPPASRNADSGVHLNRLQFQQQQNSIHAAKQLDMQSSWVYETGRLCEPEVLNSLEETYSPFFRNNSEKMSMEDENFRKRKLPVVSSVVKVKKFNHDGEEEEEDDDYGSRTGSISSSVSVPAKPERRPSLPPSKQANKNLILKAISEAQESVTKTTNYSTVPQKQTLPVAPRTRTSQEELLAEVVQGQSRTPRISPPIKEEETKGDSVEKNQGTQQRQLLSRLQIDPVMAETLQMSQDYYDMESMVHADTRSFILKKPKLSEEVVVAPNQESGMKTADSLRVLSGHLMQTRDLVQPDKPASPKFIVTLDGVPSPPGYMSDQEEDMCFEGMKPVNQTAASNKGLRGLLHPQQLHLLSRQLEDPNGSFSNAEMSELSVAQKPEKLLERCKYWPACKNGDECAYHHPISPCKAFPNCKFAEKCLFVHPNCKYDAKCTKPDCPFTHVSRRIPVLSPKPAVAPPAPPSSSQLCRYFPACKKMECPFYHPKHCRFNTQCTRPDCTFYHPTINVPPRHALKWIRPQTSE
Protocol: A variety of analogs in which the tricycle scaffold was modified were prepared and evaluated for their MSUT2 inhibitor activity.
The N-substitution pattern was also explored. The dose-dependent activity of these compounds was determined using a primary tau-inclusion neuronal assay and is summarized in Table 3 below.

MSUT2 [2] = molecular target: T1, MSUT2; experiment: NMR Saturation Transfer Difference studies; type: binding; conditions: 15 μM MSUT2 protein; down-field shift of ligand signals at 4.10 and 3.05 ppm; Kd could not be calculated
Protocol: The concentration of MSUT2 protein is 15 μM. Ratio of ligand to protein is indicated to the left of individual spectra.

MSUT2 [3] = molecular target: T1, MSUT2; experiment: photo-affinity labelling experiments (PAL probe BL-1138, TAMRA fluorescence SDS-PAGE); type: binding; conditions: for ligand-protein binding mode (decrease in tagging density with competitor): used as competitor against PAL probe BL-1138, full MSUT2 and GST-MSUT2 construct
Source text: FIG. 7A and FIG. 7B show representative data from photo-affinity labelling experiments performed using UWK-5 (lanes 1-4) and BL-1122 (lanes 5-8) as competitors. Gel visualized by fluorescence imaging using TAMRA (excitation/emission maxima 546/579 nm).

[4] = molecular target: MSUT2/poly(A)RNA binding interaction (Homo sapiens (Human), UniProt Q6PJT7); experiment: high-throughput AlphaScreen, dose-response in vitro; type: biochemical; conditions: AlphaScreen dose-response profile in vitro
MSUT2/poly(A)RNA binding interaction, sequence (Q6PJT7 whole entry, species assumed): as above
Source text: MSUT2 has been identified as a therapeutic target for the treatment of tauopathy, and MSUT2 KO has decreased the accumulation of pathological tau and reduced the formation of NFTs in tau-transgenic PS19 mice models. Screening of >100,000 compounds in an AlphaScreen and an orthogonal FP-HTS assay identified a promising thiochromenathiazole-based inhibitor of the MSUT2/poly(A)RNA binding interaction. Preliminary SAR experiments have been conducted to confirm biological activity and to identify novel biologically active compounds of interest. […] Due to challenges in functionalizing an electron-deficient tricycle scaffold, the synthesis of analogues will coincide with an effort towards the optimization of synthetic conditions.

| IC50 (MSUT2 [1]) [µM] | biological activity in the in vitro assay (SAR summary in words) (MSUT2 [1]) | SMILES | also measured |
| --- | --- | --- | --- |
| 109 | eliminates activity | CCS(=O)(=O)c1ccc(C(=O)Nc2nc3c(s2)CSCC3)cc1 | – |
| 8.17 | – | Nc1nc2c(s1)CSc1ccccc1-2 [BL-0957] | – |
| > 100 | loss of biological activity | Nc1nc2c(s1)CCc1ccccc1-2 [BL-0960] | – |
| > 100 | loss of biological activity | Nc1nc2c(s1)CCCc1ccccc1-2 [BL-0961] | – |
| > 100 | – | CCS(=O)(=O)c1ccc(C(=O)Nc2nc3c(s2)COc2ccccc2-3)cc1 [BL-0962] | – |
| 45.1 | – | CCS(=O)(=O)c1ccc(C(=O)Nc2nc3c(s2)CCc2ccccc2-3)cc1 [BL-0963] | – |
| 23.6 | – | Nc1nc2c(s1)CSc1c(F)cccc1-2 [BL-0979] | – |
| 22.9 | – | Nc1nc2c(s1)CSc1ccc(F)cc1-2 [BL-0980] | – |
| 22.3 | – | Nc1nc2c(s1)CSc1cc(F)ccc1-2 [BL-0981] | – |
| 60.9 | – | Nc1nc2c(s1)CSc1c(F)cc(F)cc1-2 [BL-1017] | – |
| > 128 | eliminates activity | Nc1nc2c(s1)CSCC2 [BL-1018] | – |
| 16.9 | – | Fc1ccc(CNc2nc3c(s2)CSc2ccccc2-3)cc1 [BL-1023] | – |
| 24.7 | – | O=S(=O)(Nc1nc2c(s1)CSc1ccccc1-2)c1ccccc1 [BL-1027] | – |
| 20.8 | – | Fc1ccc(CNc2nc3c(s2)COc2ccccc2-3)cc1 [BL-1038] | – |
| 34.2 | – | O=S(=O)(Nc1nc2c(s1)COc1ccccc1-2)c1ccccc1 [BL-1039] | – |
| 5.67 | – | CCN(CC)c1ccc(CNc2nc3c(s2)CSc2ccccc2-3)cc1 [BL-1041] | – |
| 20.2 | – | CC(C)Cc1ccc(CNc2nc3c(s2)CSc2ccccc2-3)cc1 [BL-1043] | – |
| 45.1 | – | CC(C)(C)OC(=O)NCC(=O)Nc1nc2c(s1)CSc1ccccc1-2 [BL-1045] | – |

| IC50 (MSUT2 [1]) [µM] | biological activity in the in vitro assay (SAR summary in words) (MSUT2 [1]) | SMILES | also measured |
| --- | --- | --- | --- |
| 23 | – | NCC(=O)Nc1nc2c(s1)CSc1ccccc1-2 [BL-1046] | – |
| 11 | – | Nc1nc2c(s1)CSc1ncccc1-2 [BL-1047] | – |
| 21.8 | – | Fc1ccc(CNc2nc3c(s2)CCc2ccccc2-3)cc1 [BL-1051] | – |
| > 128 | eliminates activity | CCS(=O)(=O)c1ccc(C(=O)Nc2nc(-c3ccccc3)cs2)cc1 [BL-1057] | – |
| > 128 | complete loss of biological activity | Nc1nc2c(s1)CS(=O)(=O)c1ccccc1-2 [BL-1075] | – |
| 12.3 | – | COC(=O)CC[C@H](NC(=O)OC(C)(C)C)C(=O)Nc1nc2c(s1)CSc1ccccc1-2 [BL-1081] | – |
| 23.2 | – | C#CCNC(=O)Nc1nc2c(s1)CSc1ccccc1-2 [BL-1084] | – |
| 12.2 | favorable activity | C#CCCNC(=O)Nc1nc2c(s1)CSc1ccccc1-2 [BL-1085] | – |
| 14.3 | favorable activity | C#CCOC(=O)Nc1nc2c(s1)CSc1ccccc1-2 [BL-1088] | – |
| 11.7 | – | C#Cc1ccc(CNc2nc3c(s2)CSc2ccccc2-3)cc1 [BL-1092] | – |
| 3.26 | favorable activity | O=C(NCCS(=O)(=O)O)Nc1nc2c(s1)CSc1ccccc1-2 [BL-1122] | binding affinity of ligand for MSUT2 protein (MSUT2 [2]): tight binding affinity; ligand-protein binding mode (decrease in tagging density with competitor) (MSUT2 [3]): competitive |
| 16 | – | CC(=O)N1N=C(c2ccccc2)SC12CCSc1ccccc12 (stereo not drawn) [BL-1123] | – |
| 51.7 | – | CC1(C)Sc2ccccc2-c2nc(N)sc21 [BL-1124] | – |
| 49.5 | – | Nc1nc2c(s1)Cc1ccccc1-2 [BL-1125] | – |
| 13.4 | – | CCS(=O)(=O)c1ccc(CNc2nc3c(s2)CSc2ccccc2-3)cc1 [BL-1126] | – |
| 32 | – | O=C(Nc1ccccc1)Nc1nc2c(s1)CSc1ccccc1-2 [BL-1131] | – |
| – | – | C#CCCC1(CCNC(=O)Nc2nc3c(s2)CSc2ccccc2-3)N=N1 [BL-1138] | fluorescence tagging of MSUT2 protein (MSUT2 [3]; PAL probe clicked with TAMRA-biotin-azide): target engagement |
| 0.586 | – | C=C(Cc1nc2c(s1)CSc1ccccc1-2)c1ccc(S(=O)(=O)CC)cc1 [UWK-5] | IC50 [4]: 1.1 µM; ligand-protein binding mode (decrease in tagging density with competitor) (MSUT2 [3]): competitive |

| SMILES | IC50 (MSUT2 [1]) [µM] | biological activity in the in vitro assay (SAR summary in words) (MSUT2 [1]) | also measured |
| --- | --- | --- | --- |
| Nc1nc2c(s1)COc1ccccc1-2 [BL-0959] | 3.91 | tolerated | – |
| Nc1nc(-c2ccccc2)cs1 [BL-1055] | > 128 | eliminates activity | – |
| Cc1ccc(CNc2nc3c(s2)CSc2ccccc2-3)s1 [BL-1132] | 7.73 | widely tolerated | – |
| c1ccc(CNc2nc3c(s2)CSc2ccccc2-3)cc1 [BL-1133] | 7.6 | widely tolerated | – |
